From ChEMBL document CHEMBL3045118, “Synthesis and biological activities of new Mannich bases of chlorokojic acid derivatives” (Med Chem Res, 2011)
In brackets after ≈: the same amount, converted by molar mass. Activity calls are given as the source filed them. No cut-off for these calls is given here.

What was measured:
Staphylococcus aureus [1] = test: Antibacterial activity against oxacillin, gentamicin, aztreonam, trimethoprim-sulfamethoxazole-resistant Staphylococcus aureus by microdilution method; assay type: functional
Bacillus subtilis [2] = test: Antibacterial activity against Bacillus subtilis ATCC 6633 by microdilution method; assay type: functional
Enterococcus faecalis [3] = test: Antibacterial activity against cephalosporins and beta-lactam-resistant Enterococcus faecalis by microdilution method; assay type: functional
Candida albicans = test: Antifungal activity against Candida albicans ATCC 10231 by microdilution method; assay type: functional
Staphylococcus aureus [4] = test: Antibacterial activity against Staphylococcus aureus ATCC 25923 by microdilution method; assay type: functional
Bacillus subtilis [5] = test: Antibacterial activity against ceftriaxon-resistant Bacillus subtilis by microdilution method; assay type: functional
Enterococcus faecalis [6] = test: Antibacterial activity against Enterococcus faecalis ATCC 29212 by microdilution method; assay type: functional
Candida parapsilosis = test: Antifungal activity against Candida parapsilosis ATCC 22019 by microdilution method; assay type: functional
Human alphaherpesvirus 1 [7] = test: Antiviral activity against Human herpesvirus 1 infected bovine MDBK cells assessed as concentration required to cause minimum inhibition of virus-induced cytopathic effect; assay type: functional
Proteus mirabilis [8] = test: Antibacterial activity against ESbetaL positive rimethoprim-sulfamethoxazole, cefepime, tazobactam-resistant Proteus mirabilis by microdilution method; assay type: functional
Human respirovirus 3 [9] = test: Antiviral activity against Human parainfluenza virus 3 infected African green monkey Vero cells assessed as concentration required to cause maximum inhibition of virus-induced cytopathic effect; assay type: functional
Human respirovirus 3 [10] = test: Antiviral activity against Human parainfluenza virus 3 infected African green monkey Vero cells assessed as concentration required to cause minimum inhibition of virus-induced cytopathic effect; assay type: functional
Klebsiella pneumoniae [11] = test: Antibacterial activity against Klebsiella pneumoniae RSKK 574 by microdilution method; assay type: functional
Escherichia coli [12] = test: Antibacterial activity against ESbetaL positive trimethoprim-sulfamethoxazole, cefepime, tazobactam-resistant Escherichia coli isolate by microdilution method; assay type: functional
Escherichia coli [13] = test: Antibacterial activity against Escherichia coli ATCC 35218 by microdilution method; assay type: functional
Acinetobacter baumannii [14] = test: Antibacterial activity against Acinetobacter baumannii RSKK 02026 by microdilution method; assay type: functional
Acinetobacter baumannii [15] = test: Antibacterial activity against trimethoprim-sulfamethoxazole, cefepime-resistant Acinetobacter baumannii by microdilution method; assay type: functional
Human alphaherpesvirus 1 [16] = test: Antiviral activity against Human herpesvirus 1 infected bovine MDBK cells assessed as concentration required to cause maximum inhibition of virus-induced cytopathic effect; assay type: functional
Proteus mirabilis [17] = test: Antibacterial activity against Proteus mirabilis ATCC 7002 by microdilution method; assay type: functional
Pseudomonas aeruginosa [18] = test: Antibacterial activity against trimethoprim-sulfamethoxazole, tazobactam-resistant Pseudomonas aeruginosa by microdilution method; assay type: functional
Klebsiella pneumoniae [19] = test: Antibacterial activity against ESbetaL positive trimethoprim-sulfamethoxazole, amoxicillin clavulonat, cefriaxon, cephepim, aztreonam-resistant Klebsiella pneumoniae by microdilution method; assay type: functional
[20] = Cytotoxicity against Bos taurus (bovine) MDBK cells assessed as maximum non-toxic concentration; assay type: cell-based; conditions: cattle, read-out: MNCC
[21] = Cytotoxicity against Chlorocebus aethiops (African green monkey) Vero cells assessed as maximum non-toxic concentration; assay type: cell-based; conditions: chlorocebus sabaeus, read-out: MNCC
Pseudomonas aeruginosa [22] = test: Antibacterial activity against Pseudomonas aeruginosa ATCC 10145 by microdilution method; assay type: functional

Row | Molecule | MIC (Staphylococcus aureus [1]) | MIC (Bacillus subtilis [2]) | MIC (Enterococcus faecalis [3]) | MIC (Candida albicans) | MIC (Staphylococcus aureus [4]) | MIC (Bacillus subtilis [5]) | MIC (Enterococcus faecalis [6]) | MIC (Candida parapsilosis; Lodderomyces parapsilosis) [µg/mL] | Activity (Human alphaherpesvirus 1 [7]) [µg/mL] | MIC (Proteus mirabilis [8]) | MIC (Klebsiella pneumoniae [11]) | MIC (Escherichia coli [12]) | MIC (Escherichia coli [13]) | MIC (Acinetobacter baumannii [14]) | MIC (Acinetobacter baumannii [15]) | Activity (Human alphaherpesvirus 1 [16]) [µg/mL] | MIC (Proteus mirabilis [17]) | MIC (Pseudomonas aeruginosa [18]) | MIC (Klebsiella pneumoniae [19]) | MIC (Pseudomonas aeruginosa [22]) | other results
1 | OC(Cn1cncn1)(Cn1cncn1)c1ccc(F)cc1F [FLUCONAZOLE] | inactive | inactive | inactive | 2 µg/mL (≈ 6.53 µM) | inactive | inactive | inactive | 4 (≈ 13.1 µM) |  |  |  |  |  |  |  |  |  |  |  |  | 
2 | O=c1cc(CCl)oc(CN2CCN(c3ccccc3F)CC2)c1O | 64 µg/mL (≈ 181 µM) | 8 µg/mL (≈ 22.7 µM) | 32 µg/mL (≈ 90.7 µM) | 8 µg/mL (≈ 22.7 µM) | 16 µg/mL (≈ 45.4 µM) | 16 µg/mL (≈ 45.4 µM) | 16 µg/mL (≈ 45.4 µM) | 8 (≈ 22.7 µM) | 0.05 | 64 µg/mL | 16 µg/mL (≈ 45.4 µM) | 64 µg/mL | 16 µg/mL (≈ 45.4 µM) | 32 µg/mL (≈ 90.7 µM) | 64 µg/mL (≈ 181 µM) | 0.8 | 32 µg/mL (≈ 90.7 µM) | 64 µg/mL | 64 µg/mL (≈ 181 µM) | 32 µg/mL (≈ 90.7 µM) | Activity (Human respirovirus 3 [9]): 0.2 µg/mL; Activity (Human respirovirus 3 [10]): 0.025 µg/mL; MNTC [20]: 0.8 µg/mL; MNTC [21]: 0.8 µg/mL
3 | COc1ccc(N2CCN(Cc3oc(CCl)cc(=O)c3O)CC2)cc1 | 64 µg/mL (≈ 175 µM) | 32 µg/mL (≈ 87.7 µM) | 64 µg/mL (≈ 175 µM) | 8 µg/mL (≈ 21.9 µM) | 32 µg/mL (≈ 87.7 µM) | 64 µg/mL (≈ 175 µM) | 32 µg/mL (≈ 87.7 µM) | 8 (≈ 21.9 µM) | 0.1 | 64 µg/mL | 16 µg/mL (≈ 43.9 µM) | 64 µg/mL | 32 µg/mL (≈ 87.7 µM) | 16 µg/mL (≈ 43.9 µM) | 32 µg/mL (≈ 87.7 µM) | 1.6 | 32 µg/mL (≈ 87.7 µM) | 64 µg/mL | 32 µg/mL (≈ 87.7 µM) | 16 µg/mL (≈ 43.9 µM) | Activity (Human respirovirus 3 [9]): 0.8 µg/mL; Activity (Human respirovirus 3 [10]): 0.05 µg/mL; MNTC [20]: 1.6 µg/mL; MNTC [21]: 1.6 µg/mL
4 | Nc1nc2c(ncn2COCCO)c(=O)[nH]1 [ACYCLOVIR] |  |  |  |  |  |  |  |  | <0.012 |  |  |  |  |  |  | 1.6 |  |  |  |  | 
5 | GENTAMICIN | inactive | inactive | inactive | inactive | inactive | inactive | inactive |  |  | inactive | inactive | inactive | inactive | inactive | inactive |  | inactive | inactive | inactive | inactive | MIC (Candida parapsilosis): inactive
6 | CC1COc2c(N3CCN(C)CC3)c(F)cc3c(=O)c(C(=O)O)cn1c23 (centres undefined) [OFLOXACIN] | 64 µg/mL (≈ 177 µM) | inactive | 32 µg/mL (≈ 88.6 µM) | inactive | 0.25 µg/mL (≈ 0.692 µM) | inactive | 1 µg/mL (≈ 2.77 µM) |  |  | 1 µg/mL | < 0.12 µg/mL |  |  | 0.12 µg/mL (≈ 0.332 µM) | 64 µg/mL (≈ 177 µM) |  | < 0.12 µg/mL |  |  |  | MIC (Candida parapsilosis): inactive
7 | CC1(C)S[C@@H]2[C@H](NC(=O)[C@H](N)c3ccccc3)C(=O)N2[C@H]1C(=O)O [AMPICILLIN] | > 128 µg/mL | 0.12 µg/mL (≈ 0.343 µM) | > 128 µg/mL | inactive | < 0.12 µg/mL | 0.5 µg/mL (≈ 1.43 µM) | 0.5 µg/mL (≈ 1.43 µM) |  |  | > 128 µg/mL | 2 µg/mL (≈ 5.72 µM) | > 128 µg/mL |  | 2 µg/mL (≈ 5.72 µM) | > 128 µg/mL |  | 2 µg/mL (≈ 5.72 µM) | inactive | > 128 µg/mL | inactive | MIC (Candida parapsilosis): inactive
8 | CC(=O)N1CCN(c2ccc(OCC3COC(Cn4ccnc4)(c4ccc(Cl)cc4Cl)O3)cc2)CC1 (centres undefined) [KETOCONAZOLE] | inactive | inactive | inactive | 1 µg/mL (≈ 1.88 µM) | inactive | inactive | inactive | 1 (≈ 1.88 µM) |  |  |  |  |  |  |  |  |  |  |  |  | 
